Measurements reported in US12435059B2, “AMP-activated protein kinase inhibitors and methods of making and using the same” (The Regents of the University of Colorado, priority 2019, dated 2025).
Read-outs that look alike come from different tables or passages of the source.

Key:
Experiment in all cases: biochemical
Type in all cases: binding
468 kinases [1] = target: 468 kinases (Homo sapiens, UniProt O43353); details: RIPK2; read-out: % Inhibition @ 100 nM
468 kinases [2] = target: 468 kinases (Homo sapiens, UniProt O96013); details: PAK4; read-out: % Inhibition @ 100 nM
468 kinases [3] = target: 468 kinases (Homo sapiens, UniProt P04049); details: RAF1; read-out: % Inhibition @ 100 nM
468 kinases [4] = target: 468 kinases (Homo sapiens, UniProt P07947); details: YES; read-out: % Inhibition @ 100 nM
468 kinases [5] = target: 468 kinases (Homo sapiens, UniProt P07949, V804L); details: RET(V804L); read-out: % Inhibition @ 100 nM
468 kinases [6] = target: 468 kinases (Homo sapiens, UniProt P21860); details: ERBB3; read-out: % Inhibition @ 100 nM
468 kinases [7] = target: 468 kinases (Homo sapiens, UniProt P29597); details: read-out: % Inhibition @ 100 nM
468 kinases [8] = target: 468 kinases (Homo sapiens, UniProt P36888, R834Q); details: FLT3(R834Q); read-out: % Inhibition @ 100 nM
468 kinases [9] = target: 468 kinases (Homo sapiens, UniProt P42684); details: ABL2; read-out: % Inhibition @ 100 nM
468 kinases [10] = target: 468 kinases (Homo sapiens, UniProt P43403); details: ZAP70; read-out: % Inhibition @ 100 nM
468 kinases [11] = target: 468 kinases (Homo sapiens, UniProt P45985); details: MEK4; read-out: % Inhibition @ 100 nM
468 kinases [12] = target: 468 kinases (Homo sapiens, UniProt P50750); details: CDK9; read-out: % Inhibition @ 100 nM
468 kinases [13] = target: 468 kinases (Homo sapiens, UniProt P51812); details: read-out: % Inhibition @ 100 nM
468 kinases [14] = target: 468 kinases (Homo sapiens, UniProt P51813); details: BMX; read-out: % Inhibition @ 100 nM
468 kinases [15] = target: 468 kinases (Homo sapiens, UniProt Q13237); details: PRKG2; read-out: % Inhibition @ 100 nM
468 kinases [16] = target: 468 kinases (Homo sapiens, UniProt Q15375); details: EPHA7; read-out: % Inhibition @ 100 nM
468 kinases [17] = target: 468 kinases (Homo sapiens, UniProt Q15746); details: MYLK; read-out: % Inhibition @ 100 nM
468 kinases [18] = target: 468 kinases (Homo sapiens, UniProt Q16816); details: PHKG1; read-out: % Inhibition @ 100 nM
468 kinases [19] = target: 468 kinases (Homo sapiens, UniProt Q2M2I8); details: AAK1; read-out: % Inhibition @ 100 nM
468 kinases [20] = target: 468 kinases (Homo sapiens, UniProt Q5S007, G2019S); details: LRRK2(G2019S); read-out: % Inhibition @ 100 nM
468 kinases [21] = target: 468 kinases (Homo sapiens, UniProt Q8N568); details: DCAMKL2; read-out: % Inhibition @ 100 nM
468 kinases [22] = target: 468 kinases (Homo sapiens, UniProt Q8TDR2); details: STK35; read-out: % Inhibition @ 100 nM
468 kinases [23] = target: 468 kinases (Homo sapiens, UniProt Q92630); details: DYRK2; read-out: % Inhibition @ 100 nM
468 kinases [24] = target: 468 kinases (Homo sapiens, UniProt Q96Q40); details: PFTAIRE2; read-out: % Inhibition @ 100 nM
468 kinases [25] = target: 468 kinases (Homo sapiens, UniProt Q96RR4); details: CAMKK2; read-out: % Inhibition @ 100 nM
468 kinases [26] = target: 468 kinases (Homo sapiens, UniProt Q9BUB5); details: MKNK1; read-out: % Inhibition @ 100 nM
468 kinases [27] = target: 468 kinases (Homo sapiens, UniProt Q9HBY8); details: SGK2; read-out: % Inhibition @ 100 nM
468 kinases [28] = target: 468 kinases (Homo sapiens, UniProt Q9HCP0); details: CSNK1G1; read-out: % Inhibition @ 100 nM
468 kinases [29] = target: 468 kinases (Homo sapiens, UniProt Q9P0L2); details: MARK1; read-out: % Inhibition @ 100 nM
468 kinases [30] = target: 468 kinases (Homo sapiens, UniProt Q9UBF8); details: PIK4CB; read-out: % Inhibition @ 100 nM
468 kinases [31] = target: 468 kinases (Homo sapiens, UniProt Q9UF33); details: EPHA6; read-out: % Inhibition @ 100 nM
468 kinases [32] = target: 468 kinases (Homo sapiens, UniProt Q9UKE5); details: TNIK; read-out: % Inhibition @ 100 nM
468 kinases [33] = target: 468 kinases (Homo sapiens, UniProt Q9UM73); details: ALK; read-out: % Inhibition @ 100 nM

SMILES: CCN(CC)CCNC(=O)c1c(C)[nH]c(/C=C2\C(=O)Nc3ccc(CCC(N)=O)cc32)c1C [Compound No. 16, (Z)-5-((5-(3-Amino-3-oxopropyl)-2-oxoindolin-3-ylidene)methyl)-N-(2-(diethylamino)ethyl)-2,4-dimethyl-1H-pyrrole-3-carboxamide]
- inhibition at 0.1 µM (468 kinases [1]): 18%
- inhibition at 0.1 µM (468 kinases [2]): 0%
- inhibition at 0.1 µM (468 kinases [3]): 0%
- inhibition at 0.1 µM (468 kinases [4]): 24%
- inhibition at 0.1 µM (468 kinases [5]): 86%
- inhibition at 0.1 µM (468 kinases [6]): 11%
- inhibition at 0.1 µM (468 kinases [7]; TYK2(JH1domain-catalytic)): 33%
- inhibition at 0.1 µM (468 kinases [7]; TYK2(JH2domain-pseudokinase)): 39%
- inhibition at 0.1 µM (468 kinases [8]): 55%
- inhibition at 0.1 µM (468 kinases [9]): 3%
- inhibition at 0.1 µM (468 kinases [10]): 60%
- inhibition at 0.1 µM (468 kinases [11]): 97.7%
- inhibition at 0.1 µM (468 kinases [12]): 6%
- inhibition at 0.1 µM (468 kinases [13]; RSK2(Kin.Dom.1-N-terminal)): 59%
- inhibition at 0.1 µM (468 kinases [14]): 8%
- inhibition at 0.1 µM (468 kinases [15]): 36%
- inhibition at 0.1 µM (468 kinases [16]): 1%
- inhibition at 0.1 µM (468 kinases [17]): 34%
- inhibition at 0.1 µM (468 kinases [18]): 88%
- inhibition at 0.1 µM (468 kinases [19]): 89%
- inhibition at 0.1 µM (468 kinases [20]): 88%
- inhibition at 0.1 µM (468 kinases [21]): 3%
- inhibition at 0.1 µM (468 kinases [22]): 15%
- inhibition at 0.1 µM (468 kinases [23]): 34%
- inhibition at 0.1 µM (468 kinases [24]): 0%
- inhibition at 0.1 µM (468 kinases [25]): 49%
- inhibition at 0.1 µM (468 kinases [26]): 31%
- inhibition at 0.1 µM (468 kinases [27]): 14%
- inhibition at 0.1 µM (468 kinases [28]): 16%
- inhibition at 0.1 µM (468 kinases [29]): 13%
- inhibition at 0.1 µM (468 kinases [30]): 10%
- inhibition at 0.1 µM (468 kinases [31]): 0%
- inhibition at 0.1 µM (468 kinases [32]): 55%
- inhibition at 0.1 µM (468 kinases [33]): 54%

SMILES: CCN(CC)CCNC(=O)c1c(C)[nH]c(/C=C2\C(=O)Nc3ccc(CCO)cc32)c1C [Compound No. 10, (Z)—N-(2-(Diethylamino)ethyl)-5-((5-(2-hydroxyethyl)-2-oxoindolin-3-ylidene)methyl)-2,4-dimethyl-1H-pyrrole-3-carboxamide]
- inhibition at 0.1 µM (468 kinases [1]): 0%
- inhibition at 0.1 µM (468 kinases [2]): 0%
- inhibition at 0.1 µM (468 kinases [3]): 9%
- inhibition at 0.1 µM (468 kinases [4]): 13%
- inhibition at 0.1 µM (468 kinases [5]): 91.1%
- inhibition at 0.1 µM (468 kinases [6]): 14%
- inhibition at 0.1 µM (468 kinases [7]; TYK2(JH1domain-catalytic)): 1%
- inhibition at 0.1 µM (468 kinases [7]; TYK2(JH2domain-pseudokinase)): 0%
- inhibition at 0.1 µM (468 kinases [8]): 56%
- inhibition at 0.1 µM (468 kinases [9]): 0%
- inhibition at 0.1 µM (468 kinases [10]): 6%
- inhibition at 0.1 µM (468 kinases [11]): 0%
- inhibition at 0.1 µM (468 kinases [12]): 0%
- inhibition at 0.1 µM (468 kinases [13]; RSK2(Kin.Dom.1-N-terminal)): 39%
- inhibition at 0.1 µM (468 kinases [13]; RSK2(Kin.Dom.2-C-terminal)): 54%
- inhibition at 0.1 µM (468 kinases [14]): 11%
- inhibition at 0.1 µM (468 kinases [15]): 0%
- inhibition at 0.1 µM (468 kinases [16]): 0%
- inhibition at 0.1 µM (468 kinases [17]): 49%
- inhibition at 0.1 µM (468 kinases [18]): 86%
- inhibition at 0.1 µM (468 kinases [19]): 88%
- inhibition at 0.1 µM (468 kinases [20]): 89%
- inhibition at 0.1 µM (468 kinases [21]): 0%
- inhibition at 0.1 µM (468 kinases [22]): 21%
- inhibition at 0.1 µM (468 kinases [23]): 18%
- inhibition at 0.1 µM (468 kinases [24]): 0%
- inhibition at 0.1 µM (468 kinases [25]): 29%
- inhibition at 0.1 µM (468 kinases [26]): 3%
- inhibition at 0.1 µM (468 kinases [27]): 0%
- inhibition at 0.1 µM (468 kinases [28]): 0%
- inhibition at 0.1 µM (468 kinases [29]): 39%
- inhibition at 0.1 µM (468 kinases [30]): 0%
- inhibition at 0.1 µM (468 kinases [31]): 0%
- inhibition at 0.1 µM (468 kinases [32]): 86%
- inhibition at 0.1 µM (468 kinases [33]): 29%
